Experimental data reported in patent publication US20080226624A1, “Combined treatment of cancer by urokinase inhibition and a cytostatic anti-cancer agent for enhancing the anti-metastatic effect” (priority 2007, published 2008).

What was measured:
tumor cell invasion = conditions: cited from earlier work
plasmin = plasmin (Homo sapiens, UniProt P00747); conditions: L-confirmation; cited from earlier work
uPA = uPA (Homo sapiens, UniProt P00749); conditions: L-confirmation; cited from earlier work
BN472 rat mammary tumors = test system: BN472 rat mammary tumors
Description: Small tumor cubes (2×2×2 mm) were prepared from a tumor grown in a donor rat and implanted orthotopically under the fat pad of the mammary gland.
The effects of treatments on body weight and tumor load were evaluated twice weekly. The final evaluation was done at the end of the therapy period after all rats had been sacrificed. Graphical evaluations of the endpoints considered, i.e., tumor size and weight, axillary lymph-node weights, the number of macroscopic lung foci, and the weights of the thymus, uterus, spleen and liver, are depicted in FIGS. 3, 3a, 3b, 3c, 3d and 3e.

[1] = irinotecan mono-therapy, both doses (2 and 6 mg/kg daily i.p.)

plasmin, sequence (P00747 581-810 limits assumed, species assumed): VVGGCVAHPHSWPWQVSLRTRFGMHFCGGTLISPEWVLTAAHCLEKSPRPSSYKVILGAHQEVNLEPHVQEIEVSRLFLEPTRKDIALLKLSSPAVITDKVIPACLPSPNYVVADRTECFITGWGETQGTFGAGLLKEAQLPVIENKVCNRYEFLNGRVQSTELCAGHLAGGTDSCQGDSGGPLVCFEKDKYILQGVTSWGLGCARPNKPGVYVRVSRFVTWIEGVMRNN
plasmin, sequence (P00747 97-580 partner limits assumed, species assumed): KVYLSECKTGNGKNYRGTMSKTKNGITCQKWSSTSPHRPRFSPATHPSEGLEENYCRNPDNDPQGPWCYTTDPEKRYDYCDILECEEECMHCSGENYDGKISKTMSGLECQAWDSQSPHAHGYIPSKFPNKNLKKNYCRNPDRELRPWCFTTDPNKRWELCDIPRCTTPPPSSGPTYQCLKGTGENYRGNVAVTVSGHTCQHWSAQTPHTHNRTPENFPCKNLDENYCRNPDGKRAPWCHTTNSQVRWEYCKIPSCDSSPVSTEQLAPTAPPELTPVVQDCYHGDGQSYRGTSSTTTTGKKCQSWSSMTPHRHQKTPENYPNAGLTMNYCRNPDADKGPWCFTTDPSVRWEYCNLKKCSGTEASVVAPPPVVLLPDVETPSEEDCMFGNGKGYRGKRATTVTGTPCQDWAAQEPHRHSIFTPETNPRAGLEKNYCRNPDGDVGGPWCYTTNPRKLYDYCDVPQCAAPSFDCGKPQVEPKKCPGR

SMILES | tumor cell invasion in vitro (tumor cell invasion) | Ki values, inhibition of plasmin (plasmin) | Ki values, inhibition of uPA (uPA) | tolerability (daily observations during the treatment period) (BN472 rat mammary tumors; WX-671 0.3 mg/kg daily p.o., irinotecan 2 or 6 mg/kg daily i.p.) | axillary lymph-nodes weight (BN472 rat mammary tumors; [1]) | number of lung foci (BN472 rat mammary tumors; [1]) | tumor growth (BN472 rat mammary tumors; irinotecan mono-therapy, daily i.p.)
CCOC(=O)N1CCN(C(=O)[C@H](Cc2cccc(C(=N)N)c2)NS(=O)(=O)c2c(C(C)C)cc(C(C)C)cc2C(C)C)CC1 [WX-UK1, N[alpha]-(2,4,6-triisopropylphenylsulfonyl)-3-amidino-(L)-phenylalanine 4-ethoxycarbonylpiperazide] | suppress tumor cell invasion in vitro | low- or sub-micromoles range | low- or sub-micromoles range | – | – | – | –
CCc1c2c(nc3ccc(OC(=O)N4CCC(N5CCCCC5)CC4)cc13)-c1cc3c(c(=O)n1C2)COC(=O)[C@]3(O)CC [irinotecan] | – | – | – | generally well tolerated | significantly inhibited | significantly inhibited | inhibition of tumor growth
